Laboratory results from PubChem BioAssay (NCI).
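Briefly, cells in 96-well plates were exposed to five compound concentrations for 48 h, and endpoints were estimated by linear interpolation. GI50 marks 50% less growth. TGI marks complete inhibition of growth.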

Columns and labels:
Experiment in all cases: NCI-60 cell line screen, 48 h
[1] = tested on: EKVX NSCLC
[2] = tested on: SNB-75 CNS
[3] = tested on: SK-OV-3 ovarian
[4] = tested on: COLO 205 colon
[5] = tested on: SF-539 CNS
[6] = tested on: DU-145 prostate
[7] = tested on: OVCAR-4 ovarian
[8] = tested on: RXF 393 renal
[9] = tested on: U251 CNS
[10] = tested on: TK-10 renal

Structure (SMILES)	GI50 [1]	TGI [1]	GI50 [2]	TGI [2]	GI50 [3]	TGI [3]	GI50 [4]	TGI [4]	GI50 [5]	TGI [5]	GI50 [6]	TGI [6]	GI50 [7]	TGI [7]	GI50 [8]	TGI [8]	GI50 [9]	TGI [9]	GI50 [10]	TGI [10]
COc1ccc(-c2cc(-c3ccccc3)nc(N3CCN(CCNc4ccnc5cc(Cl)ccc45)CC3)n2)cc1	19 µM	48.3 µM	14.9 µM	28.8 µM	10.3 µM	22 µM	1.17 µM	2.66 µM	1.53 µM	3.06 µM	1.88 µM	3.94 µM	1.87 µM	4.05 µM	0.842 µM	2.27 µM	1.56 µM	3.45 µM	2.19 µM	4.88 µM
CN(C)c1ccc(-c2cc(-c3ccc(Nc4nc(Nc5ccccc5)nc(Nc5ccc(Cl)cc5)n4)cc3)nc(N)n2)cc1	1.82 µM	> 100 µM	3.27 µM	37.7 µM	18.8 µM	> 100 µM	2.04 µM	11.6 µM	5.61 µM	23.5 µM	8.09 µM	21.4 µM	5.01 µM	> 100 µM	2.78 µM	12.9 µM	5.06 µM	25 µM	5.68 µM	38.7 µM
C=CCNCCCN1C(=O)c2ccc3c4c(ccc(c24)C1=O)C(=O)N(CCCNCC=C)C3=O	0.295 µM	1.09 µM	0.999 µM	2.23 µM	0.775 µM	3.61 µM	0.172 µM	0.335 µM	0.584 µM	2.41 µM	0.311 µM	0.857 µM	0.143 µM	0.307 µM	0.344 µM	1.52 µM	0.269 µM	1 µM	0.551 µM	6.14 µM
CCN1CCN(CC(=O)Nc2nc3ccc(NCc4ccc(Cl)cc4)cc3s2)CC1	3.29 µM	> 100 µM	1.88 µM	4.5 µM	2.95 µM	7.98 µM	1.82 µM	3.5 µM	1.69 µM	3.18 µM	7.31 µM	> 100 µM	5.25 µM	90.6 µM	1.54 µM	3.05 µM	2 µM	4.03 µM	2.84 µM	7.45 µM
C/C([O-])=C1\Cc2ccccc2C1=O.C/C([O-])=C1\Cc2ccccc2C1=O.CC[O-].CC[O-].[Ti+4]	29.6 µM	> 100 µM	21.6 µM	45.9 µM	20.3 µM	81.7 µM	27.4 µM	67.4 µM	13.6 µM	33.1 µM	26.4 µM	> 100 µM	27.2 µM	> 84.5 µM	7.3 µM	21.9 µM	9.36 µM	26.2 µM	32.2 µM	> 100 µM
CN(c1ccc(NC(=O)Nc2ccc(OC(F)(F)F)cc2)cc1)c1ccnc(Nc2cccc(S(N)(=O)=O)c2)n1	5.33 µM	12.4 µM	2.38 µM	6.61 µM	4.65 µM	8.96 µM	0.317 µM	3.5 µM	0.591 µM	5.47 µM	3.26 µM	6.46 µM	3.06 µM	8.03 µM	2.13 µM	6.04 µM	3.07 µM	6.64 µM	6.21 µM	13 µM
Cc1nc2sc(C(=O)Nc3cccc4ccccc34)c(N)c2cc1C(=O)/C=C/c1ccccc1	1.14 µM	> 36.7 µM	0.232 µM	> 10.4 µM	1.35 µM	> 50 µM	0.957 µM	2.64 µM	0.265 µM	1.16 µM	0.822 µM	3.6 µM	1.02 µM	> 15.7 µM	0.203 µM	0.776 µM	0.236 µM	1.01 µM	1.28 µM	8.88 µM
C[C@H]1[C@H](C)CC[C@]2(C(=O)N3CCN(C)CC3)CC[C@]3(C)C(=CC[C@@H]4[C@@]5(C)C/C(=C/c6cccnc6)C(=O)C(C)(C)[C@@H]5CC[C@]43C)[C@H]12	1.59 µM	2.99 µM	1.08 µM	2.34 µM	1.71 µM	3.22 µM	1.53 µM	4.78 µM	1.44 µM	2.78 µM	1.29 µM	2.65 µM	1.07 µM	2.48 µM	1.24 µM	2.55 µM	0.547 µM	1.87 µM	1.54 µM	3.04 µM
COc1ccc(C(=O)/C=C/c2c(C(F)(F)F)nc3sccn23)cc1OC	4.43 µM	> 100 µM	6.87 µM	> 100 µM	3.41 µM	> 100 µM	4.56 µM	72.4 µM	2.36 µM	8.52 µM	1.64 µM	5 µM	4.08 µM	> 100 µM	2.51 µM	29.8 µM	1.87 µM	> 100 µM	8.76 µM	> 100 µM
COc1ccc(C/C(C)=C(\c2ccc(OCCN3CCOCC3)cc2)c2ccc(OC(=O)Cc3ccccc3)cc2)cc1	0.851 µM	3.49 µM	0.692 µM	4.47 µM	0.978 µM	4.45 µM	0.614 µM	1.54 µM	0.513 µM	0.977 µM	1.33 µM	20.4 µM	1.03 µM	10.2 µM	0.438 µM	0.883 µM	0.501 µM	0.965 µM	0.778 µM	2.03 µM
NC(=O)c1cc([N+](=O)[O-])c(Cl)c([N+](=O)[O-])c1	17.4 µM	35.7 µM	4.63 µM	17.8 µM	16.9 µM	30.6 µM	1.99 µM	3.5 µM	2.02 µM	4 µM	2.15 µM	3.92 µM	1.91 µM	3.9 µM	1.69 µM	3.11 µM	2.31 µM	5.61 µM	1.91 µM	3.36 µM
N=c1c2c(-c3ccccc3)c(-c3ccccc3)n(Cc3ccccc3)c2ncn1CCCO	4.4 µM	21.3 µM	1.38 µM	8.43 µM	4.18 µM	17.9 µM	0.681 µM	2.02 µM	1.24 µM	4.17 µM	3.14 µM	19.1 µM	1.43 µM	13.4 µM	0.443 µM	2.5 µM	0.704 µM	13.3 µM	5.37 µM	19.3 µM
C/C(=C\c1ccn(-c2ccc(N)c(F)c2)n1)[C@@H]1C[C@@H]2O[C@]2(C)CCC[C@H](C)[C@H](O)[C@@H](C)C(=O)C(C)(C)[C@@H](O)CC(=O)O1	0.171 µM	> 50 µM	< 0.005 µM	0.0725 µM	0.0262 µM	> 50 µM	0.00845 µM	0.128 µM	0.012 µM	0.11 µM	0.0155 µM	0.121 µM	0.0964 µM	> 50 µM	0.0119 µM	0.109 µM	< 0.005 µM	> 50 µM	0.064 µM	> 50 µM
C=C(C)[C@@H]1CC[C@]2(C(=O)NCCNCCNCCN)CC[C@]3(C)[C@H](CC[C@@H]4[C@@]5(C)CC[C@H](O)C(C)(C)[C@@H]5CC[C@]43C)[C@@H]12	10.5 µM	26.6 µM	11.1 µM	27.6 µM	17.5 µM	36.9 µM	15.9 µM	34.6 µM	11.1 µM	23.7 µM	14.1 µM	30.1 µM	14.1 µM	33 µM	13.2 µM	27.2 µM	12.7 µM	27.1 µM	15.8 µM	31.3 µM
CC(=O)NCCSC(=O)c1ccccc1	–	8.24 µM	–	12.4 µM	–	14.8 µM	–	0.516 µM	–	1.39 µM	–	2.62 µM	–	> 42.8 µM	–	0.958 µM	–	0.759 µM	–	0.475 µM
CS(=O)(=O)c1ccc(-c2cnc(N)c(C(=O)Nc3ccccc3)n2)cc1	> 92.3 µM	> 100 µM	7.22 µM	> 100 µM	6.85 µM	> 100 µM	> 43 µM	> 100 µM	6.81 µM	> 100 µM	8.35 µM	> 100 µM	9.86 µM	> 100 µM	2.69 µM	> 50.1 µM	31.7 µM	> 100 µM	16.9 µM	> 100 µM
O=Cc1cn(Cc2cccc(Cl)c2)c2ccccc12	9.9 µM	25 µM	8.99 µM	25.1 µM	1.8 µM	16 µM	0.355 µM	14 µM	14.7 µM	28 µM	12.5 µM	25 µM	2.88 µM	18.3 µM	–	> 33 µM	9.61 µM	21.8 µM	0.136 µM	1.27 µM
C=C1CC2(C[C@@H](c3ccccc3)O[C@@H](c3ccccc3)C2)OC1=O (some centres undefined)	–	25.7 µM	–	14.3 µM	–	27.8 µM	–	4.45 µM	–	4.94 µM	–	21.4 µM	–	13.5 µM	–	3.55 µM	–	28.9 µM	–	3.89 µM
CC1=CCC(OC(=O)C(C)(C)CCC(O)(C(=O)OC2(C(C)C)CCC3(C)OC3C2)C(C)C)(C(C)C)CC1 (centres undefined)	0.654 µM	1.41 µM	0.0258 µM	1.41 µM	0.692 µM	5.81 µM	0.496 µM	1.59 µM	0.707 µM	1.36 µM	0.23 µM	0.451 µM	0.608 µM	1.87 µM	0.587 µM	1.25 µM	0.363 µM	1.12 µM	0.532 µM	1.43 µM
C=C(C)C(=O)OC1CC2=CC(CC3(C)OC3C3OC(=O)C(=C)C13)OC2=O (centres undefined)	–	30.9 µM	–	28.5 µM	–	36.8 µM	–	7.08 µM	–	18.3 µM	–	51.8 µM	–	29.9 µM	–	9.37 µM	–	32.5 µM	–	15.3 µM
